{"source": "patent US20260262643A1", "about": "“HERBICIDAL BENZOXAZINES” (FMC CORPORATION, priority 2022, published 2026)", "key": {"barnyardgrass [1]": {"test_system": "barnyardgrass", "test": "Test C preemergence", "assay_type": "in vivo, Echinochloa crusgalli", "procedure,_shortened": "(§1)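 Seeds sown in loam soil–sand blend received a directed preemergence soil spray of test chemical in non-phytotoxic solvent with surfactant; postemergence plants (2–10 cm, one- to two-leaf stage) were sprayed with the same formulation. Greenhouse-held 10 days, then visually rated for injury versus untreated controls, 0 (no effect) to 100 (complete control).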"}, "blackgrass [2]": {"test_system": "blackgrass", "test": "Test C preemergence", "assay_type": "in vivo, Alopecurus myosuroides", "procedure,_shortened": "as §1"}, "corn [3]": {"test_system": "corn", "test": "Test C preemergence", "assay_type": "in vivo, Zea mays", "procedure,_shortened": "as §1"}, "green foxtail [4]": {"test_system": "green foxtail", "test": "Test C preemergence", "assay_type": "in vivo, Setaria viridis", "procedure,_shortened": "as §1"}, "kochia [5]": {"test_system": "kochia", "test": "Test C preemergence", "assay_type": "in vivo, Bassia scoparia", "procedure,_shortened": "as §1"}, "oat, wild [6]": {"test_system": "oat, wild", "test": "Test C preemergence", "assay_type": "in vivo, Avena fatua", "procedure,_shortened": "as §1"}, "pigweed, palmer [7]": {"test_system": "pigweed, palmer", "test": "Test C preemergence", "assay_type": "in vivo, Amaranthus palmeri", "conditions": "500 g ai/ha, preemergence; 0 to 100 scale (0 no effect, 100 complete control)", "procedure,_shortened": "as §1"}, "ragweed [8]": {"test_system": "ragweed", "test": "Test C preemergence", "assay_type": "in vivo, Ambrosia artemisiifolia", "procedure,_shortened": "as §1"}, "ryegrass, Italian [9]": {"test_system": "ryegrass, Italian", "test": "Test C preemergence", "assay_type": "in vivo, Lolium multiflorum", "procedure,_shortened": "as §1"}, "soybean [10]": {"test_system": "soybean", "test": "Test C preemergence", "assay_type": "in vivo, Glycine max", "procedure,_shortened": "as §1"}, "wheat [11]": {"test_system": "wheat", "test": "Test C preemergence", "assay_type": "in vivo, Triticum aestivum", "procedure,_shortened": "as §1"}, "barnyardgrass [12]": {"test_system": "barnyardgrass", "test": "Test C postemergence", "assay_type": "in vivo, Echinochloa crusgalli", "conditions": "10 days, 0 to 100 scale (0 no effect, 100 complete control)", "procedure,_shortened": "as §1"}, "blackgrass [13]": {"test_system": "blackgrass", "test": "Test C postemergence", "assay_type": "in vivo, Alopecurus myosuroides", "conditions": "10 days, 0 to 100 scale (0 no effect, 100 complete control)", "procedure,_shortened": "as §1"}, "corn [14]": {"test_system": "corn", "test": "Test C postemergence", "assay_type": "in vivo, Zea mays", "conditions": "10 days, 0 to 100 scale (0 no effect, 100 complete control)", "procedure,_shortened": "as §1"}, "green foxtail [15]": {"test_system": "green foxtail", "test": "Test C postemergence", "assay_type": "in vivo, Setaria viridis", "conditions": "10 days, 0 to 100 scale (0 no effect, 100 complete control)", "procedure,_shortened": "as §1"}, "kochia [16]": {"test_system": "kochia", "test": "Test C postemergence", "assay_type": "in vivo, Bassia scoparia", "conditions": "500 g ai/ha, postemergence, 10 days, 0 to 100 scale (0 no effect, 100 complete control)", "procedure,_shortened": "as §1"}, "oat, wild [17]": {"test_system": "oat, wild", "test": "Test C postemergence", "assay_type": "in vivo, Avena fatua", "conditions": "10 days, 0 to 100 scale (0 no effect, 100 complete control)", "procedure,_shortened": "as §1"}, "pigweed, palmer [18]": {"test_system": "pigweed, palmer", "test": "Test C postemergence", "assay_type": "in vivo, Amaranthus palmeri", "conditions": "500 g ai/ha, postemergence, 10 days, 0 to 100 scale (0 no effect, 100 complete control)", "procedure,_shortened": "as §1"}, "ragweed [19]": {"test_system": "ragweed", "test": "Test C postemergence", "assay_type": "in vivo, Ambrosia artemisiifolia", "conditions": "500 g ai/ha, postemergence, 10 days, 0 to 100 scale (0 no effect, 100 complete control)", "procedure,_shortened": "as §1"}, "ryegrass, Italian [20]": {"test_system": "ryegrass, Italian", "test": "Test C postemergence", "assay_type": "in vivo, Lolium multiflorum", "conditions": "10 days, 0 to 100 scale (0 no effect, 100 complete control)", "procedure,_shortened": "as §1"}, "soybean [21]": {"test_system": "soybean", "test": "Test C postemergence", "assay_type": "in vivo, Glycine max", "conditions": "500 g ai/ha, postemergence, 10 days, 0 to 100 scale (0 no effect, 100 complete control)", "procedure,_shortened": "as §1"}, "wheat [22]": {"test_system": "wheat", "test": "Test C postemergence", "assay_type": "in vivo, Triticum aestivum", "conditions": "10 days, 0 to 100 scale (0 no effect, 100 complete control)", "procedure,_shortened": "as §1"}, "galium": {"test_system": "galium", "test": "Test C postemergence", "assay_type": "in vivo, Galium aparine", "conditions": "500 g ai/ha, postemergence, 10 days, 0 to 100 scale (0 no effect, 100 complete control)", "procedure,_shortened": "as §1"}, "horseweed": {"test_system": "horseweed", "test": "Test C postemergence", "assay_type": "in vivo, Erigeron canadensis", "conditions": "10 days, 0 to 100 scale (0 no effect, 100 complete control)", "procedure,_shortened": "as §1"}, "barnyardgrass [23]": {"test_system": "barnyardgrass", "test": "Test D flooded paddy test", "assay_type": "in vivo, Echinochloa crus-galli", "conditions": "250 g ai/ha, applied to paddy water, visual rating after 13 to 14 days, scale 0 to 100 (0 no effect, 100 complete control)", "procedure,_shortened": "(§2)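 Visual ratings from 0, meaning no effect, to 100, meaning complete control, were assigned against untreated controls 13 to 14 days after compounds were added to the floodwater of pots kept 3 cm deep, with plants at the 2-leaf stage.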"}, "ducksalad": {"test_system": "ducksalad", "test": "Test D flooded paddy test", "assay_type": "in vivo, Heteranthera limosa", "conditions": "250 g ai/ha, applied to paddy water, visual rating after 13 to 14 days, scale 0 to 100 (0 no effect, 100 complete control)", "procedure,_shortened": "as §2"}, "rice": {"test_system": "rice", "test": "Test D flooded paddy test", "assay_type": "in vivo, Oryza sativa", "conditions": "250 g ai/ha, applied to paddy water, visual rating after 13 to 14 days, scale 0 to 100 (0 no effect, 100 complete control)", "procedure,_shortened": "as §2"}, "sedge, umbrella": {"test_system": "sedge, umbrella", "test": "Test D flooded paddy test", "assay_type": "in vivo, Cyperus difformis", "conditions": "250 g ai/ha, applied to paddy water, visual rating after 13 to 14 days, scale 0 to 100 (0 no effect, 100 complete control)", "procedure,_shortened": "as §2"}, "[24]": {"conditions": "500 g ai/ha, preemergence, 0 to 100 scale (0 no effect, 100 complete control)"}, "[25]": {"conditions": "Preemergence, 125 g ai/ha, 0 to 100 scale, 0 no effect, 100 complete control"}}, "data": [{"compound": "Cc1nnc(-c2cccc(C(=O)N3C[C@H](C)Oc4c(Cl)cccc43)c2)o1", "note": "[Compound 355]", "values": [{"measurement": "Barnyardgrass plant response rating", "setting": "barnyardgrass [1]; [24]", "result": 0}, {"measurement": "Plant response rating, Barnyardgrass", "setting": "barnyardgrass [1]; [25]", "result": 0}, {"measurement": "Blackgrass plant response rating", "setting": "blackgrass [2]; [24]", "result": 0}, {"measurement": "Plant response rating, Blackgrass", "setting": "blackgrass [2]; [25]", "result": 0}, {"measurement": "Corn plant response rating", "setting": "corn [3]; [24]", "result": 0}, {"measurement": "Plant response rating, Corn", "setting": "corn [3]; [25]", "result": 0}, {"measurement": "Foxtail, Green plant response rating", "setting": "green foxtail [4]; [24]", "result": 20}, {"measurement": "Plant response rating, Foxtail, Green", "setting": "green foxtail [4]; [25]", "result": 20}, {"measurement": "Kochia plant response rating", "setting": "kochia [5]; [24]", "result": 0}, {"measurement": "Plant response rating, Kochia", "setting": "kochia [5]; [25]", "result": 0}, {"measurement": "Oat, Wild plant response rating", "setting": "oat, wild [6]; [24]", "result": 0}, {"measurement": "Plant response rating, Oat, Wild", "setting": "oat, wild [6]; [25]", "result": 0}, {"measurement": "Pigweed, Palmer plant response rating", "setting": "pigweed, palmer [7]", "result": 0}, {"measurement": "Ragweed plant response rating", "setting": "ragweed [8]; [24]", "result": 0}, {"measurement": "Plant response rating, Ragweed", "setting": "ragweed [8]; [25]", "result": 0}, {"measurement": "Ryegrass, Italian plant response rating", "setting": "ryegrass, Italian [9]; [24]", "result": 20}, {"measurement": "Plant response rating, Ryegrass, Italian", "setting": "ryegrass, Italian [9]; [25]", "result": 20}, {"measurement": "Soybean plant response rating", "setting": "soybean [10]; [24]", "result": 0}, {"measurement": "Plant response rating, Soybean", "setting": "soybean [10]; [25]", "result": 20}, {"measurement": "Wheat plant response rating", "setting": "wheat [11]; [24]", "result": 0}, {"measurement": "Plant response rating, Wheat", "setting": "wheat [11]; [25]", "result": 0}, {"measurement": "Plant response rating, Barnyardgrass", "setting": "barnyardgrass [12]; 500 g ai/ha, postemergence", "result": 10}, {"measurement": "Plant response rating, Barnyardgrass", "setting": "barnyardgrass [12]; Postemergence, 125 g ai/ha", "result": 10}, {"measurement": "Plant response rating, Blackgrass", "setting": "blackgrass [13]; 500 g ai/ha, postemergence", "result": 0}, {"measurement": "Plant response rating, Blackgrass", "setting": "blackgrass [13]; Postemergence, 125 g ai/ha", "result": 0}, {"measurement": "Plant response rating, Corn", "setting": "corn [14]; 500 g ai/ha, postemergence", "result": 10}, {"measurement": "Plant response rating, Corn", "setting": "corn [14]; Postemergence, 125 g ai/ha", "result": 10}, {"measurement": "Plant response rating, Foxtail, Green", "setting": "green foxtail [15]; 500 g ai/ha, postemergence", "result": 10}, {"measurement": "Plant response rating, Foxtail, Green", "setting": "green foxtail [15]; Postemergence, 125 g ai/ha", "result": 10}, {"measurement": "Plant response rating, Kochia", "setting": "kochia [16]", "result": 0}, {"measurement": "Plant response rating, Oat, Wild", "setting": "oat, wild [17]; 500 g ai/ha, postemergence", "result": 0}, {"measurement": "Plant response rating, Oat, Wild", "setting": "oat, wild [17]; Postemergence, 125 g ai/ha", "result": 0}, {"measurement": "Plant response rating, Pigweed, Palmer", "setting": "pigweed, palmer [18]", "result": 10}, {"measurement": "Plant response rating, Ragweed", "setting": "ragweed [19]", "result": 0}, {"measurement": "Plant response rating, Ryegrass, Italian", "setting": "ryegrass, Italian [20]; 500 g ai/ha, postemergence", "result": 0}, {"measurement": "Plant response rating, Ryegrass, Italian", "setting": "ryegrass, Italian [20]; Postemergence, 125 g ai/ha", "result": 0}, {"measurement": "Plant response rating, Soybean", "setting": "soybean [21]", "result": 50}, {"measurement": "Plant response rating, Wheat", "setting": "wheat [22]; 500 g ai/ha, postemergence", "result": 10}, {"measurement": "Plant response rating, Wheat", "setting": "wheat [22]; Postemergence, 125 g ai/ha", "result": 10}, {"measurement": "Plant response rating, Galium", "setting": "galium", "result": 10}, {"measurement": "Plant response rating, Horseweed", "setting": "horseweed; 500 g ai/ha, postemergence", "result": 0}, {"measurement": "Plant response rating, Horseweed", "setting": "horseweed; Postemergence, 125 g ai/ha", "result": 0}, {"measurement": "Plant response rating, Barnyardgrass (Flood)", "setting": "barnyardgrass [23]", "result": 0}, {"measurement": "Plant response rating, Ducksalad (Flood)", "setting": "ducksalad", "result": 0}, {"measurement": "Plant response rating, Rice (Flood)", "setting": "rice", "result": 0}, {"measurement": "Plant response rating, Sedge, Umbrella (Flood)", "setting": "sedge, umbrella", "result": 0}]}]}
